This note sets out measurements from patent publication US9062078B2, “Substituted 7-azabicyles and their use as orexin receptor modulators” (priority 2013, dated 2015).

Read-outs that look alike come from different tables or passages of the source. A value given as a limit tells only on which side of the number the result lay.

The target in assay [1] is human orexin 1 receptor (Homo sapiens (Human), UniProt O43613). The assay can be described thus: Human orexin 1 receptor radioligand binding (competitive, [3H]-SB674042, CHO cell preparations).
Chain of human orexin 1 receptor (O43613 whole entry): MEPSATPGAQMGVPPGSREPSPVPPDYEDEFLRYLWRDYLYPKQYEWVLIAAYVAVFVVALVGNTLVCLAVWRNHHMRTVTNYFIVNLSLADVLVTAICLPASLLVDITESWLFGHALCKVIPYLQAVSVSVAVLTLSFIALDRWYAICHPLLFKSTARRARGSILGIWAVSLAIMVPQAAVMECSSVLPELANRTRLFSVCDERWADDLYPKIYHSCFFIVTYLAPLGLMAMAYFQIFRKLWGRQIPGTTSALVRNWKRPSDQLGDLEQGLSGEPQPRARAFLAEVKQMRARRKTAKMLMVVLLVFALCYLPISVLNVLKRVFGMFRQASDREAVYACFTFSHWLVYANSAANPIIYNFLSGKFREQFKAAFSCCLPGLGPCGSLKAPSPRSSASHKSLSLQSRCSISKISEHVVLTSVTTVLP
The target in assay [2] is human orexin 2 receptor (Homo sapiens (Human), UniProt O43614). Description: Human orexin 2 receptor radioligand binding (competitive, [3H]-EMPA, HEK293 cell preparations).
Chain of human orexin 2 receptor (O43614 whole entry): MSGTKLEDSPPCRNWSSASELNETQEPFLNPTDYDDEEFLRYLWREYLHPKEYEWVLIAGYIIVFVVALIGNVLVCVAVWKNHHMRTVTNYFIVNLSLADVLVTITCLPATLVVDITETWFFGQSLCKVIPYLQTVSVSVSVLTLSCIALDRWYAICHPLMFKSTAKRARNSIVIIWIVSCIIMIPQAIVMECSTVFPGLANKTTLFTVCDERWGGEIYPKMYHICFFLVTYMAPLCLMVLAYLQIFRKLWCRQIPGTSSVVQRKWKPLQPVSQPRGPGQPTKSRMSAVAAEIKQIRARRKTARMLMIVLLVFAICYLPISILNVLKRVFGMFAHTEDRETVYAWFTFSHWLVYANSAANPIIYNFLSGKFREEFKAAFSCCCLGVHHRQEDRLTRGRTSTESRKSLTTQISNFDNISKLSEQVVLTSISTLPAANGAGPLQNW
Where [3] appears, read: human orexin 1 receptor, [3H]-SB674042 competition binding, read-out: hOX1 Ki (nm).
Where [4] appears, read: human orexin 2 receptor, [3H]-EMPA competition binding, read-out: hOX2 Ki (nm).

Regarding `Cc1cccc(OCC2CC3CCC2N3C(=O)c2cccc(F)c2-n2nccn2)n1` (racemic) [Example 142, (±)-(3-fluoro-2-(2H-1,2,3-triazol-2-yl)phenyl)(2-(((6-methylpyridin-2-yl)oxy)methyl)-7-azabicyclo[2.2.1]heptan-7-yl)methanone], the Ki in assay [1] (setting [3]) amounted to 207 nM; in assay [2] (setting [4]), 300 nM.

As for `Cc1ccc(C(=O)N2C3CCC2C(COc2cccc(C(F)(F)F)n2)C3)c(-n2nccn2)n1` (racemic) [Example 143, (±)-(6-methyl-2-(2H-1,2,3-triazol-2-yl)pyridin-3-yl)(2-(((6-(trifluoromethyl)pyridin-2-yl)oxy)methyl)-7-azabicyclo[2.2.1]heptan-7-yl)methanone], the Ki is 3900 nM in assay [1] (setting [3]) and 4600 nM in assay [2] (hOX2 Ki (nm)).

With `Cc1ccc(C(=O)N2C3CCC2C(COc2cccc(C(F)(F)F)n2)C3)c(-n2ccnn2)n1` (racemic) [Example 144, (±)-(6-methyl-2-(1H-1,2,3-triazol-1-yl)pyridin-3-yl)(2-(((6-(trifluoromethyl)pyridin-2-yl)oxy)methyl)-7-azabicyclo[2.2.1]heptan-7-yl)methanone], the inhibition constant (Ki) in assay [1] (setting [3]) worked out at 3600 nM; in assay [2] (hOX2 Ki (nm)) it was 3200 nM.

As to `Cc1noc(-c2ccccc2C(=O)N2C3CCC2C(COc2cccc(C(F)(F)F)n2)C3)n1` (racemic) [Example 145, (±)-(2-(3-methyl-1,2,4-oxadiazol-5-yl)phenyl)(2-(((6-(trifluoromethyl)pyridin-2-yl)oxy)methyl)-7-azabicyclo[2.2.1]heptan-7-yl)methanone], the results for the Ki in assay [1] (setting [3]) and in assay [2] (hOX2 Ki (nm)) were 340 nM and 330 nM, respectively.

In the case of `O=C(c1cccc(F)c1-n1nccn1)N1C2CCC1C(COc1cccc(C(F)(F)F)n1)C2` (racemic) [Example 146, (±)-(3-fluoro-2-(2H-1,2,3-triazol-2-yl)phenyl)(2-(((6-(trifluoromethyl)pyridin-2-yl)oxy)methyl)-7-azabicyclo[2.2.1]heptan-7-yl)methanone], the values for the inhibition constant (Ki) in assay [1] (setting [3]) and in assay [2] (setting [4]) were 180 nM and 196 nM, respectively.

Regarding `Cc1ccc(C(=O)N2C3CCC2C(COc2cnc4ccccc4n2)C3)c(-n2ccnn2)n1` (racemic) [Example 148, (±)-(6-methyl-2-(1H-1,2,3-triazol-1-yl)pyridin-3-yl)(2-((quinoxalin-2-yloxy)methyl)-7-azabicyclo[2.2.1]heptan-7-yl)methanone], the Ki is 6300 nM in assay [1] (setting [3]) and 3200 nM in assay [2] (setting [4]).

As for `Cc1noc(-c2ccccc2C(=O)N2C3CCC2C(COc2cnc4ccccc4n2)C3)n1` (racemic) [Example 149, (±)-(2-(3-methyl-1,2,4-oxadiazol-5-yl)phenyl)(2-((quinoxalin-2-yloxy)methyl)-7-azabicyclo[2.2.1]heptan-7-yl)methanone], the Ki in assay [1] (setting [3]) stood at 220 nM; in assay [2] (setting [4]), 2000 nM.

Consider `O=C(c1cccc(F)c1-n1nccn1)N1C2CCC1C(COc1cnc3ccccc3n1)C2` (racemic) [Example 150, (±)-(3-fluoro-2-(2H-1,2,3-triazol-2-yl)phenyl)(2-((quinoxalin-2-yloxy)methyl)-7-azabicyclo[2.2.1]heptan-7-yl)methanone], for which the Ki in assay [1] (setting [3]) was 180 nM; in assay [2] (setting [4]), 990 nM.

Turning to `Cc1cc(C)nc(OCC2CC3CCC2N3C(=O)c2ccc(C)nc2-n2nccn2)n1` (racemic) [Example 151, (±)-(2-(((4,6-dimethylpyrimidin-2-yl)oxy)methyl)-7-azabicyclo[2.2.1]heptan-7-yl)(6-methyl-2-(2H-1,2,3-triazol-2-yl)pyridin-3-yl)methanone], the inhibition constant Ki in assay [1] (setting [3]) and in assay [2] (setting [4]) was not below 10000 nM in each case.

As for `Cc1cc(C)nc(OCC2CC3CCC2N3C(=O)c2ccc(C)nc2-n2ccnn2)n1` (racemic) [Example 152, (±)-(2-(((4,6-dimethylpyrimidin-2-yl)oxy)methyl)-7-azabicyclo[2.2.1]heptan-7-yl)(6-methyl-2-(1H-1,2,3-triazol-1-yl)pyridin-3-yl)methanone], the Ki in assay [1] (setting [3]) was not below 10000 nM; in assay [2] (setting [4]) it was 5900 nM.

With `Cc1cc(C)nc(OCC2CC3CCC2N3C(=O)c2ccccc2-c2nc(C)no2)n1` (racemic) [Example 153, (±)-(2-(((4,6-dimethylpyrimidin-2-yl)oxy)methyl)-7-azabicyclo[2.2.1]heptan-7-yl)(2-(3-methyl-1,2,4-oxadiazol-5-yl)phenyl)methanone], the inhibition constant Ki in assay [1] (setting [3]) was found to be 1100 nM; in assay [2] (setting [4]), 440 nM.

As to `Cc1cc(C)nc(OCC2CC3CCC2N3C(=O)c2cccc(F)c2-n2nccn2)n1` (racemic) [Example 154, (±)-(2-(((4,6-dimethylpyrimidin-2-yl)oxy)methyl)-7-azabicyclo[2.2.1]heptan-7-yl)(3-fluoro-2-(2H-1,2,3-triazol-2-yl)phenyl)methanone], the Ki in assay [1] (setting [3]) was 690 nM; in assay [2] (hOX2 Ki (nm)), 300 nM.

For the compound `CCOc1ccccc1C(=O)N1C2CCC1C(COc1ccc(F)cn1)C2` (racemic) [Example 165, (±)-(2-ethoxyphenyl)(2-(((5-fluoropyridin-2-yl)oxy)methyl)-7-azabicyclo[2.2.1]heptan-7-yl)methanone], the Ki in assay [1] (hOX1 Ki (nm)) was determined as 409 nM; in assay [2] (setting [4]) it was 550 nM.

Take `O=C(c1cc(F)ccc1-n1nccn1)N1C2CCC1C(COc1cnc3ccccc3n1)C2` (racemic) [Example 166, (±)-(5-fluoro-2-(2H-1,2,3-triazol-2-yl)phenyl)(2-((quinoxalin-2-yloxy)methyl)-7-azabicyclo[2.2.1]heptan-7-yl)methanone]: the Ki in assay [1] (setting [3]) turned out to be 106 nM; in assay [2] (setting [4]) it was 1140 nM.

In the case of `Cc1ccc(OCC2CC3CCC2N3C(=O)c2cc(C)ccc2-n2nccn2)nc1` (racemic) [Example 167, (±)-5-methyl-2-(2H-1,2,3-triazol-2-yl)phenyl)(2-(((5-methylpyridin-2-yl)oxy)methyl)-7-azabicyclo[2.2.1]heptan-7-yl)methanone], the Ki in assay [1] (setting [3]) came out at 9 nM; in assay [2] (hOX2 Ki (nm)), 14 nM.

On to `Cc1ccc(C(=O)N2C3CCC2C(COc2cnc4ccccc4n2)C3)c(-n2nccn2)n1` (racemic) [Example 168, (±)-(6-methyl-2-(2H-1,2,3-triazol-2-yl)pyridin-3-yl)(2-((quinoxalin-2-yloxy)methyl)-7-azabicyclo[2.2.1]heptan-7-yl)methanone], for which the Ki in assay [1] (setting [3]) amounted to 2300 nM; in assay [2] (hOX2 Ki (nm)), 7300 nM.

Turning to `O=C(c1cc(F)ccc1-n1nccn1)N1C2CCC1C(CNc1ccccn1)C2` (racemic) [Example 169, (±)-(5-fluoro-2-(2H-1,2,3-triazol-2-yl)phenyl)(2-((pyridin-2-ylamino)methyl)-7-azabicyclo[2.2.1]heptan-7-yl)methanone], the Ki in assay [1] (setting [3]) turned out to be 9000 nM; in assay [2] (setting [4]), 2530 nM.

In the case of `Cc1cc(C)nc(NCC2CC3CCC2N3C(=O)c2cc(F)ccc2-n2nccn2)n1` (racemic) [Example 170, (±)-(2-(((4,6-dimethylpyrimidin-2-yl)amino)methyl)-7-azabicyclo[2.2.1]heptan-7-yl)(5-fluoro-2-(2H-1,2,3-triazol-2-yl)phenyl)methanone], the inhibition constant (Ki) was found to be 1960 nM in assay [1] (setting [3]) and 512 nM in assay [2] (hOX2 Ki (nm)).

As to `Cc1ccc(-n2nccn2)c(C(=O)N2C3CCC2C(COc2cc(C)nc(C(F)(F)F)n2)C3)c1` (racemic) [Example 180, (±)-(5-methyl-2-(2H-1,2,3-triazol-2-yl)phenyl)(2-(((6-methyl-2-(trifluoromethyl)pyrimidin-4-yl)oxy)methyl)-7-azabicyclo[2.2.1]heptan-7-yl)methanone], the Ki in assay [1] (hOX1 Ki (nm)) was 33 nM; in assay [2] (setting [4]) it was 32 nM.

Take `O=C(c1ccccc1-n1nccn1)N1C2CCC1C(Nc1cnc(C(F)(F)F)cn1)C2` (racemic) [Example 182, (±)-((2-(2H-1,2,3-triazol-2-yl)phenyl)(2-((5-(trifluoromethyl)pyrazin-2-yl)amino)-7-azabicyclo[2.2.1]heptan-7-yl)methanone]: the inhibitory constant (Ki) in assay [1] (hOX1 Ki (nm)) is 38 nM; in assay [2] (hOX2 Ki (nm)), 1100 nM.

Regarding `Cc1cc(C)nc(NC2CC3CCC2N3C(=O)c2cc(F)ccc2-n2nccn2)n1` (racemic) [Example 197, (±)-(2-((4,6-dimethylpyrimidin-2-yl)amino)-7-azabicyclo[2.2.1]heptan-7-yl)(5-fluoro-2-(2H-1,2,3-triazol-2-yl)phenyl)methanone], the Ki in assay [1] (hOX1 Ki (nm)) came out at 9000 nM; in assay [2] (hOX2 Ki (nm)), 862 nM.

Take `Cc1cc(C)nc(NC2CC3CCC2N3C(=O)c2c(F)cccc2-n2nccn2)n1` (racemic) [Example 198, (±)-(2-((4,6-dimethylpyrimidin-2-yl)amino)-7-azabicyclo[2.2.1]heptan-7-yl)(2-fluoro-6-(2H-1,2,3-triazol-2-yl)phenyl)methanone]: the inhibitory constant (Ki) in assay [1] (hOX1 Ki (nm)) worked out at 1410 nM; in assay [2] (setting [4]) it was 704 nM.

For the compound `Cc1cc(C)nc(NC2CC3CCC2N3C(=O)c2ccc(F)cc2-n2nccn2)n1` (racemic) [Example 199, (±)-(2-((4,6-dimethylpyrimidin-2-yl)amino)-7-azabicyclo[2.2.1]heptan-7-yl)(4-fluoro-2-(2H-1,2,3-triazol-2-yl)phenyl)methanone], the inhibition constant (Ki) turned out to be 1630 nM in assay [1] (setting [3]) and 553 nM in assay [2] (setting [4]).

Turning to `O=C(c1ccccc1-c1cccs1)N1[C@@H]2CC[C@H]1[C@H](COc1ccc(F)cn1)C2` (single isomer, unassigned) [Example 12A, ((1S*,2R*,4R*)-2-(((5-fluoropyridin-2-yl)oxy)methyl)-7-azabicyclo[2.2.1]heptan-7-yl)(2-(thiophen-2-yl)phenyl)methanone], the Ki worked out at 177 nM in assay [1] (hOX1 Ki (nm)) and 339 nM in assay [2] (hOX2 Ki (nm)).

Consider `O=C(c1ccccc1-c1cccs1)N1[C@H]2CC[C@@H]1[C@@H](COc1ccc(F)cn1)C2` (single isomer, unassigned) [Example 12B, ((1R*,2S*,4S*)-2-(((5-fluoropyridin-2-yl)oxy)methyl)-7-azabicyclo[2.2.1]heptan-7-yl)(2-(thiophen-2-yl)phenyl)methanone], for which the Ki in assay [1] (hOX1 Ki (nm)) came to 3 nM; in assay [2] (hOX2 Ki (nm)) it was 5 nM.

Consider `O=C(c1ccccc1-n1nccn1)N1C2CCC1C(Nc1cnc(C(F)(F)F)cn1)C2` (single isomer, unassigned) [Example 183b], for which the inhibition constant (Ki) came out at 28 nM in assay [1] (hOX1 Ki (nm)) and 700 nM in assay [2] (hOX2 Ki (nm)).

By Ki is commonly meant a dissociation constant, usually derived from enzyme kinetics or from competition with a known ligand.
